ChEMBL document CHEMBL4052771, “3,5-Bis(3-dimethylaminomethyl-4-hydroxybenzylidene)-4-piperidone and related compounds induce glutathione oxidation and mitochondria-mediated cell death in HCT-116 colon cancer cells” (Bioorg Med Chem Lett, 2017)
Active and inactive are the calls of the source. The rule behind the calls is not given here.

Experiments:
[1] = system: Liver; test: Stimulation of mitochondrial respiration in Wistar rat liver […] assessed as oxygen consumption rate at 20 and 25 uM using pyruvate and malate as respiratory substrate after 4 mins; type: functional
[2] = system: HCT-116; test: Antiproliferative activity against human HCT116 cells after 48 hrs by sulforhodamine B assay; type: functional; settings: HCT-116, 48 h
[3] = Selectivity index, ratio of GI50 for human CRL1790 cells to GI50 for human HCT116 cells; type: functional
[4] = Cytotoxicity against human CRL1790 cells assessed as reduction in cell viability after 48 hrs by sulforhodamine B assay; type: cell-based; settings: CRL1790 (CCD-841CoN) cells
[5] = system: HCT-116; test: Induction of mitochondrial superoxide generation in human HCT116 cells at antiproliferative GI50 after 60 mins by mitoSOX red-probe based fluorescence assay; type: functional, cell-based
[6] = system: Liver; test: Induction of mitochondrial swelling in Wistar rat liver […] at 0.1 uM after 20 mins in presence of pyruvate and malate by spectroscopic analysis; type: functional
[7] = system: HCT-116; test: Induction of reactive oxygen species generation in human HCT116 cells at antiproliferative GI50 after 60 mins by DCFH-DA probe based assay; type: functional, cell-based
[8] = system: HCT-116; test: Induction of glutathione oxidation in human HCT116 cells assessed as increase in GSSG/GSH ratio at 500 uM in presence of NADPH after 48 hrs by Ellman's method; type: functional, cell-based
[9] = system: HCT-116; test: Induction of mitochondrial membrane potential loss in human HCT116 cells at antiproliferative GI50 after 48 hrs by JC-1 staining based fluorescence assay; type: functional, cell-based
[10] = system: Liver; test: Stimulation of mitochondrial respiration in Wistar rat liver […] assessed as oxygen consumption rate at 0.1 and 10 uM using pyruvate and malate as respiratory substrate after 4 mins; type: functional

Row | Compound | Activity [1] | GI50 [2] | RatioGI50 [3] | GI50 at 48 h [4] | Activity [5] | Activity [6] | Activity [7] | Activity [8] | Activity [9] | Activity [10]
1 | O=[N+]([O-])c1ccc(O)c([N+](=O)[O-])c1 | Active |  |  |  |  |  |  |  |  | 
2 | COc1cc(/C=C/C(=O)CC(=O)/C=C/c2ccc(O)c(OC)c2)ccc1O [CURCUMIN] |  | 3.5 µM | 16.7 | 58.6 µM | Active | Active | Active | Active | Active | 
3 | O=c1[nH]cc(F)c(=O)[nH]1 [FLUOROURACIL] |  | 5.47 µM | 1.88 | 10.3 µM |  | inactive |  |  |  | inactive
